# Measurements as given in paper PMC8480901 (PLoS ONE, 2021).
# Where “and” joins values, the source holds several entries; their conditions need not be identical. Equal values may be shown once.
# Columns and labels:
# [1] = test system: J774.2 mouse macrophages; experiment: LPS-induced cytokine and chemokine levels in J774.2 mouse macrophage cell supernatant (ELISA); type: cell-based; conditions: LPS; for IL-1β % reduction / IL-1β Mean / IL-6 % reduction / IL-6 Mean / TNF-α % reduction / TNF-α Mean / CCl2 / CXCL1 / GM-CSF / IL-1β / IL-6 / TNF-α / CCl2, % reduction / CCl2, Mean / GM-CSF % reduction / GM-CSF Mean: J774.2 supernatant; for CCl2 / CXCL1 / GM-CSF / IL-1β / IL-6 / TNF-α / CXCL2 / MMP9: individual replicate; for CXCL2 / MMP9: J774.2 cells
# [2] = test system: human neutrophils; experiment: Cytotoxicity in human neutrophils (CellTiter Glo); type: cell-based
# Experimental: For the chemotaxis and cytotoxicity evaluations, average relative light unit values were calculated from all untreated vehicle samples and, for each sample, percentage of vehicle value was calculated. The tested compound was considered cytotoxic if reduction from untreated vehicle was ≥20%.
smiles,measurement,setting,value
C=C[C@]1(C)C[C@@H](OC(=O)CS[C@@H]2CC[C@@H](N)C[C@H]2O)[C@]2(C)[C@H](C)CC[C@]3(CCC(=O)[C@H]32)[C@@H](C)[C@@H]1O [Lefamulin],IL-1β % reduction,[1]; 1 µM,-12%
same,IL-1β Mean,[1]; 1 µM,213 pg/mL
same,IL-6 % reduction,[1]; 1 µM,0.856%
same,IL-6 Mean,[1]; 1 µM,76721 pg/mL
same,TNF-α % reduction,[1]; 1 µM,-11%
same,TNF-α Mean,[1]; 1 µM,1515 pg/mL
same,CCl2,[1]; 1 µM,38237.3 pg/mL and 40341.1 pg/mL
same,CXCL1,[1]; 1 µM,25.5 pg/mL and 26.1 pg/mL
same,GM-CSF,[1]; 1 µM,597.3 pg/mL and 530.6 pg/mL
same,IL-1β,[1]; 1 µM,223.29 pg/mL and 203.668 pg/mL
same,IL-6,[1]; 1 µM,75165 pg/mL and 78277 pg/mL
same,TNF-α,[1]; 1 µM,1503.6 pg/mL and 1525.6 pg/mL
same,"CCl2, % reduction",[1]; 3 µM,-16%
same,"CCl2, Mean",[1]; 3 µM,41389 pg/mL
same,GM-CSF % reduction,[1]; 3 µM,51%
same,GM-CSF Mean,[1]; 3 µM,681 pg/mL
same,IL-1β % reduction,[1]; 3 µM,12%
same,IL-1β Mean,[1]; 3 µM,168 pg/mL
same,IL-6 % reduction,[1]; 3 µM,0.505%
same,IL-6 Mean,[1]; 3 µM,76992 pg/mL
same,TNF-α % reduction,[1]; 3 µM,-11%
same,TNF-α Mean,[1]; 3 µM,1517 pg/mL
same,CCl2,[1]; 3 µM,47549.1 pg/mL and 35229.8 pg/mL
same,CXCL1,[1]; 3 µM,27.5 pg/mL and 27.6 pg/mL
same,GM-CSF,[1]; 3 µM,645.8 pg/mL and 715.5 pg/mL
same,IL-1β,[1]; 3 µM,151.548 pg/mL and 184.21 pg/mL
same,IL-6,[1]; 3 µM,76816 pg/mL and 77168 pg/mL
same,TNF-α,[1]; 3 µM,1470.9 pg/mL and 1563.2 pg/mL
same,"CCl2, % reduction",[1]; 10 µM,-20%
same,"CCl2, Mean",[1]; 10 µM,42850 pg/mL
same,GM-CSF % reduction,[1]; 10 µM,25%
same,GM-CSF Mean,[1]; 10 µM,1034 pg/mL
same,IL-1β % reduction,[1]; 10 µM,16%
same,IL-1β Mean,[1]; 10 µM,160 pg/mL
same,IL-6 % reduction,[1]; 10 µM,11%
same,IL-6 Mean,[1]; 10 µM,69181 pg/mL
same,TNF-α % reduction,[1]; 10 µM,-18%
same,TNF-α Mean,[1]; 10 µM,1616 pg/mL
same,CCl2,[1]; 10 µM,49014.8 pg/mL and 36684.7 pg/mL
same,CXCL1,[1]; 10 µM,35.9 pg/mL and 33.8 pg/mL
same,GM-CSF,[1]; 10 µM,1124.4 pg/mL and 943.6 pg/mL
same,IL-1β,[1]; 10 µM,178.332 pg/mL and 142.562 pg/mL
same,IL-6,[1]; 10 µM,73782 pg/mL and 64579 pg/mL
same,TNF-α,[1]; 10 µM,1578.1 pg/mL and 1653.1 pg/mL
same,"CCl2, % reduction",[1]; 30 µM,-35%
same,"CCl2, Mean",[1]; 30 µM,47970 pg/mL
same,GM-CSF % reduction,[1]; 30 µM,-22%
same,GM-CSF Mean,[1]; 30 µM,1662 pg/mL
same,IL-1β % reduction,[1]; 30 µM,6%
same,IL-1β Mean,[1]; 30 µM,179 pg/mL
same,IL-6 % reduction,[1]; 30 µM,25%
same,IL-6 Mean,[1]; 30 µM,57940 pg/mL
same,TNF-α % reduction,[1]; 30 µM,-31%
same,TNF-α Mean,[1]; 30 µM,1789 pg/mL
same,CCl2,[1]; 30 µM,51706.3 pg/mL and 44234.6 pg/mL
same,CXCL1,[1]; 30 µM,87.9 pg/mL and 85.2 pg/mL
same,GM-CSF,[1]; 30 µM,1753.9 pg/mL and 1570.0 pg/mL
same,IL-1β,[1]; 30 µM,181.679 pg/mL and 176.699 pg/mL
same,IL-6,[1]; 30 µM,56206 pg/mL and 59673 pg/mL
same,TNF-α,[1]; 30 µM,1766.5 pg/mL and 1811.5 pg/mL
same,"CCl2, % reduction",[1]; 100 µM,26%
same,"CCl2, Mean",[1]; 100 µM,27179 pg/mL
same,GM-CSF % reduction,[1]; 100 µM,-29%
same,GM-CSF Mean,[1]; 100 µM,1755 pg/mL
same,IL-1β % reduction,[1]; 100 µM,-71%
same,IL-1β Mean,[1]; 100 µM,325 pg/mL
same,IL-6 % reduction,[1]; 100 µM,46%
same,IL-6 Mean,[1]; 100 µM,42097 pg/mL
same,TNF-α % reduction,[1]; 100 µM,-249%
same,TNF-α Mean,[1]; 100 µM,4717 pg/mL
same,CCl2,[1]; 100 µM,26262.5 pg/mL and 28095.5 pg/mL
same,CXCL1,[1]; 100 µM,258.9 pg/mL and 215.6 pg/mL
same,GM-CSF,[1]; 100 µM,1833.3 pg/mL and 1676.9 pg/mL
same,IL-1β,[1]; 100 µM,330.455 pg/mL and 319.964 pg/mL
same,IL-6,[1]; 100 µM,40652 pg/mL and 43542 pg/mL
same,TNF-α,[1]; 100 µM,4063.6 pg/mL and 5370.1 pg/mL
same,CXCL2,[1]; compound 0.03 µM,31852.1 pg/mL and 31453.1 pg/mL
same,MMP9,[1]; compound 0.03 µM,895.68 pg/mL and 982.757 pg/mL
same,CXCL2,[1]; compound 0.1 µM,30865.4 pg/mL and 29898.5 pg/mL
same,MMP9,[1]; compound 0.1 µM,770.463 pg/mL and 867.766 pg/mL
same,CXCL2,[1]; compound 0.3 µM,32714.1 pg/mL and 32124.3 pg/mL
same,MMP9,[1]; compound 0.3 µM,798.08 pg/mL and 882.55 pg/mL
same,CXCL2,[1]; compound 1 µM,35082.5 pg/mL and 36713.0 pg/mL
same,MMP9,[1]; compound 1 µM,879.359 pg/mL and 1004.8 pg/mL
same,CXCL2,[1]; compound 3 µM,37039.4 pg/mL and 32794.8 pg/mL
same,MMP9,[1]; compound 3 µM,913.107 pg/mL and 886.534 pg/mL
same,CXCL2,[1]; compound 10 µM,36052.8 pg/mL and 33589.2 pg/mL
same,MMP9,[1]; compound 10 µM,894.885 pg/mL and 781.214 pg/mL
same,CXCL2,[1]; compound 30 µM,37378.3 pg/mL and 38345.7 pg/mL
same,MMP9,[1]; compound 30 µM,446.696 pg/mL and 398.398 pg/mL
same,CXCL2,[1]; compound 100 µM,37906.2 pg/mL and 37582.2 pg/mL
same,MMP9,[1]; compound 100 µM,104.703 pg/mL and 78.135 pg/mL
same,"% viability at test concentration vs vehicle control, Mean ± SEM","[2]; 0.03 µM, n=3, percentage of RLU",105 ± 1.36%
same,"% viability at test concentration vs vehicle control, Mean ± SEM","[2]; 0.1 µM, n=3",106 ± 1.34%
same,"% viability at test concentration vs vehicle control, Mean ± SEM","[2]; 0.3 µM, n=3",105 ± 2.39%
same,"% viability at test concentration vs vehicle control, Mean ± SEM","[2]; 1 µM, n=3",103 ± 4.22%
same,"% viability at test concentration vs vehicle control, Mean ± SEM","[2]; 3 µM, n=3",103 ± 3.07%
same,"% viability at test concentration vs vehicle control, Mean ± SEM","[2]; 10 µM, n=3",102 ± 2.98%
same,cytotoxic effects,"[2]; 30 μM, cytotoxic if reduction from vehicle ≥20%",no cytotoxic effects
same,"% viability at test concentration vs vehicle control, Mean ± SEM","[2]; 30 µM, n=3",101 ± 2.58%
same,"% viability at test concentration vs vehicle control, Mean ± SEM","[2]; 100 µM, n=3",86 ± 2.99%
same,"% viability at test concentration vs vehicle control, Mean ± SEM","[2]; 100 µM, n=3, listed as lefamulin",86%
